Test results: article PMC5662078, “Doliroside A from Dolichos falcata Klein suppressing amyloid β-protein 42 fibrillogenesis: An insight at molecular level” (PLoS ONE, 2017)

Molecular target: T1, amyloid β-protein 42 (Aβ42) (Homo sapiens, UniProt P05067)
T1 construct: gene APP
Test: ThT fluorescence fibrillation assay of synthetic Aβ[…]); supported by DSC Tm shifts, CD and AFM
Format: biochemical

T1 sequence (P05067 672-713): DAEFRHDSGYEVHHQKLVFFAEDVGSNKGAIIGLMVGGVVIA

- IC50: 26.6 ± 1.6 µM
Compound: COC(=O)[C@]1(C)C(OC2OC(CO)C(O)C(O)C2O)[C@@H](O)C[C@@]2(C)C1CC[C@]1(C)C2CC=C2[C@@H]3CC(C)(C)CCC3(C(=O)O)CC[C@]21C (stereo partly shown) [DA, doliroside A]
